The results in this text go back to patent US20050192314A1, “Urea derivatives as C-kit modulators” (Ambit Biosciences Corporation, priority 2003, published 2005).

The target in the experiment is T1, KIT(DKIN) (Homo sapiens, UniProt P10721).
T1 construct: KIT(DKIN); made in house
T1 sequence (P10721 589-937 limits assumed): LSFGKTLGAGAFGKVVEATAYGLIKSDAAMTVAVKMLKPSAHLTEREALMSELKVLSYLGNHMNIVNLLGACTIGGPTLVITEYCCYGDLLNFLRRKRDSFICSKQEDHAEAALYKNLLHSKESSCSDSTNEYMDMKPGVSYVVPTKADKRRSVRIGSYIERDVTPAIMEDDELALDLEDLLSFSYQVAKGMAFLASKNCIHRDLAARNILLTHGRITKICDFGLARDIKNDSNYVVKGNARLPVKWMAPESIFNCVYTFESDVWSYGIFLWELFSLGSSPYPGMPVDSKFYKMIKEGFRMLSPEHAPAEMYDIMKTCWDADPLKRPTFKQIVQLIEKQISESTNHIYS
As to the kind of experiment: Binding constant (Kd) measurement, phage-displayed kinase competition binding assay: KIT(DKIN). The text has this:
The term “ND” represents non-determined values.
`CC(C)(C)c1cc(NC(=O)Nc2ccc(NC(=O)c3ccc4ncccc4c3)cc2)no1` [Compound N151]: the Kd (usually the free concentration of one partner at which half of the binding sites on the other are occupied at equilibrium, for simple one-to-one binding) was in the range of 0.1 to 1 µM.

`CC(C)(C)c1cc(NC(=O)Nc2ccc(C(=O)Nc3cccc(C(F)(F)F)c3)cc2)no1` [Compound N154] registered a Kd of 1 to 10 µM.

In turn, `CC(C)(C)c1cc(NC(=O)Nc2ccc(Cl)cc2)on1` [Compound A32] showed an equilibrium dissociation constant (Kd) of 0.1 to 1 µM.

Compound `CC(C)(C)c1cc(NC(=O)Nc2ccc(OCc3ccc4nonc4c3)cc2)no1` [Compound G55] yielded a Kd of 0.1 to 1 µM.

Regarding `O=C(Nc1ccc(Cl)cc1)Nc1cc(C(F)(F)F)cc(Cl)n1` [Compound Z76], the Kd is 0.1 to 1 µM.

With `CC(C)(C)c1cc(NC(=O)Nc2ccc(NC(=O)C3CCNCC3)cc2)no1` [Compound N150], the Kd fell in the range of 1 to 10 µM.

The compound `CC(C)(C)c1cc(NC(=O)Nc2ccc(N)cc2)no1` [Compound C1, 1-(5-tert-butylisoxazol-3-yl)-3-(4-aminophenyl)urea] showed an equilibrium dissociation constant (Kd) of 1 to 10 µM.

Turning to `CC(C)(C)c1cc(NC(=O)Nc2ccc(NC(=O)C3CCCCC3)cc2)no1` [Compound N91], the Kd lay in the range of 1 to 10 µM.

Compound `CC(C)(C)c1cc(NC(=O)Nc2ccc(OCc3ccccc3C(F)(F)F)cc2)no1` [Compound G4] returned a Kd of 0.1 to 1 µM.

`CC(C)(C)c1cc(NC(=O)Nc2ccc(NC(=O)c3ccccc3)cc2)no1` [Compound N34] came in with an equilibrium dissociation constant (Kd) of 0.1 to 1 µM.

As to `Cc1ncccc1C(=O)Nc1ccc(NC(=O)Nc2cc(C(C)(C)C)on2)cc1` [Compound N145], the equilibrium dissociation constant (Kd) lay in the range of 0.1 to 1 µM.

Take `C=CCOc1ccc(NC(=O)Nc2cc(C(C)(C)C)no2)cc1` [Compound G32]: the equilibrium dissociation constant (Kd) was below 0.1 µM.

`CC(C)(C)c1cc(NC(=O)Nc2ccc(Cl)cc2)no1` [Compound A27] had a Kd of 0.1 to 1 µM.

`CC(C)(C)c1cc(NC(=O)Nc2ccc(Oc3ccccc3)cc2)no1` [Compound A24] had a Kd of 0.1 to 1 µM.

The compound `CSc1ccc(NC(=O)Nc2cc(C(C)(C)C)on2)cc1` [Compound A37] registered a Kd of 0.1 to 1 µM.

On to `CC(C)(C)c1cc(NC(=O)Nc2ccc(NC(=O)c3cccc4nsnc34)cc2)no1` [Compound N109], for which the Kd was 0.1 to 1 µM.

`Cc1ccc(-c2cc(C(=O)Nc3ccc(NC(=O)Nc4cc(C(C)(C)C)on4)cc3)c(C)o2)cc1` [Compound N120]: the Kd lay in the range of 1 to 10 µM.

In turn, `CSc1ncc(Br)c(C(=O)Nc2ccc(NC(=O)Nc3cc(C(C)(C)C)on3)cc2)n1` [Compound N114] showed a Kd of 0.1 to 1 µM.

`COc1cc(NC(=O)Nc2cc(C(C)(C)C)no2)cc(OC)c1OC` [Compound A49]: the Kd lay within 0.1 to 1 µM.

In the case of `Cn1nc(C(C)(C)C)cc1C(=O)Nc1ccc(NC(=O)Nc2cc(C(C)(C)C)on2)cc1` [Compound N10], the Kd was 0.1 to 1 µM.

In the case of `CC(C)(C)c1cc(NC(=O)Nc2ccc(OCc3c(Cl)cccc3Cl)cc2)no1` [Compound G19], the Kd fell in the range of 0.1 to 1 µM.

With `Cc1noc(-c2ccc(NC(=O)Nc3cc(C(C)(C)C)on3)cc2)n1` [Compound P9], the Kd is below 0.1 µM.

Take `CC(C)(C)c1cc(NC(=O)Nc2ccc(C(N)=O)cc2)no1` [Compound N86]: the Kd fell in the range of 0.1 to 1 µM.

`CC(C)(C)c1cc(NC(=O)Nc2ccc(NC(=O)c3c(F)cccc3C(F)(F)F)cc2)no1` [Compound N95] returned a Kd of 1 to 10 µM.

With `CC(C)(C)c1cc(NC(=O)Nc2ccc(NC(=O)c3csnn3)cc2)no1` [Compound N14], the Kd is 0.1 to 1 µM.

In turn, `Cc1ccncc1C(=O)Nc1ccc(NC(=O)Nc2cc(C(C)(C)C)on2)cc1` [Compound N104] came in with a Kd of 0.1 to 1 µM.

With `CC(C)(C)c1cc(NC(=O)Nc2ccc(NC(=O)Cc3ccc(-c4ccccc4)cc3)cc2)no1` [Compound N38], the Kd lay within 0.1 to 1 µM.

In the case of `CC(C)(C)c1cc(NC(=O)Nc2ccc(NS(=O)(=O)c3ccccc3)cc2)no1` [Compound V1], the Kd lay in the range of 1 to 10 µM.

On to `CC(C)(C)c1cc(NC(=O)Nc2ccc(-c3nc(-c4ccc(Cl)cc4)no3)cc2)no1` [Compound P7], for which the Kd fell in the range of 0.1 to 1 µM.

The compound `CC(C)(C)OC(=O)Nc1ccc(NC(=O)Nc2cc(C(C)(C)C)on2)cc1` [Compound N101] had a Kd of 0.1 to 1 µM.

As for `Cn1nc(C(C)(C)C)cc1NC(=O)Nc1ccc(OCc2ccccc2)cc1` [Compound H2], the dissociation constant Kd lay within 0.1 to 1 µM.

Regarding `CC(C)(C)c1cc(NC(=O)Nc2ccc(NC(=O)c3cc(Cl)cn(Cc4ccccc4)c3=O)cc2)no1` [Compound N112], the Kd was in the range of 1 to 10 µM.

For `CC(C)(C)c1cc(NC(=O)Nc2ccc(OCCc3ccc(F)cc3)cc2)no1` [Compound G24], the Kd lay in the range of 0.1 to 1 µM.

The compound `Cc1ccc(-n2nc(C(C)(C)C)cc2NC(=O)Nc2ccc(OCCN3CCOC(CO)C3)c3ccccc23)cc1` (stereo not shown) [Compound G38] yielded a dissociation constant (Kd) of 0.1 to 1 µM.

Regarding `CN(Cc1cccc([N+](=O)[O-])c1)C(=O)Nc1cc(C(C)(C)C)on1` [Compound J3], the Kd was in the range of 1 to 10 µM.

For `CC(C)(C)c1cc(NC(=O)Nc2ccc(F)cc2)no1` [Compound A47], the Kd lay within 1 to 10 µM.

With `Cc1ccc(NC(=O)Nc2cc(C(C)(C)C)on2)cc1` [Compound A33], the Kd was in the range of 0.1 to 1 µM.

`Cn1c(SCC(=O)Nc2ccc(NC(=O)Nc3cc(C(C)(C)C)on3)cc2)nnc1-c1cccn(Cc2ccccc2)c1=O` [Compound Z47]: the Kd was in the range of 0.1 to 1 µM.

`CC(C)(C)c1cc(NC(=O)Nc2ccc(NC(=O)CCc3ccccc3)cc2)no1` [Compound N96] gave a Kd of 0.1 to 1 µM.

`CC(C)(C)c1cc(NC(=O)Nc2ccncc2)no1` [Compound A53] registered a Kd of 1 to 10 µM.

Compound `CC(C)(C)c1cc(NC(=O)Nc2ccc(OCc3cccc(F)c3)cc2)no1` [Compound G14] came in with a Kd of 0.1 to 1 µM.

In turn, `C[C@H](NC(=O)c1ccc(NC(=O)Nc2cc(C(C)(C)C)on2)cc1)c1ccccc1` [Compound N88] displayed a Kd of 0.1 to 1 µM.

For the compound `CC(C)(C)c1cc(NC(=O)Nc2ccc(OCCc3ccccc3F)cc2)no1` [Compound G25], the Kd lay in the range of 0.1 to 1 µM.

In turn, `CC(C)(C)c1cc(NC(=O)Nc2ccc(OCc3ccc(C(=O)c4ccccc4)cc3)cc2)no1` [Compound G9] came in with a Kd of 0.1 to 1 µM.

For `Cc1ccc(NC(=O)Nc2cc(C(F)(F)F)cc(Cl)n2)cc1` [Compound W1], the Kd is 0.1 to 1 µM.

In the case of `CC(C)(C)c1cc(NC(=O)Nc2ccc(NC(=O)c3c(F)cccc3F)cc2)no1` [Compound N37], the Kd lay in the range of 1 to 10 µM.

As for `CC(C)(C)c1cc(NC(=O)Nc2ccc(OCc3ccccc3)cc2)on1` [Compound G30], the Kd lay in the range of 0.1 to 1 µM.

In turn, `CC(C)(C)c1cc(NC(=O)Nc2ccc(NC(=O)c3cnc4cc(C(F)(F)F)ccc4c3O)cc2)no1` [Compound N146] had a Kd of 1 to 10 µM.

`COc1ccc(N(C)C(=O)Nc2cc(C(C)(C)C)on2)cc1` [Compound J10] came in with a Kd of 0.1 to 1 µM.

In the case of `NC(=O)c1c(NC(=O)Nc2ccc(Cl)c(Cl)c2)sc2c1CCCC2` [Compound Z56], the Kd was above 10 µM.

The compound `CC1CN(CCOc2ccc(NC(=O)Nc3cc(C(C)(C)C)on3)cc2)CCN1` (stereo not shown) [Compound G46] had a Kd above 10 µM.

Turning to `CCOc1ccc(NC(=O)Nc2cc(C(C)(C)C)on2)cc1` [Compound G20], the Kd was below 0.1 µM.

`CC(C)(C)c1cc(NC(=O)Nc2ccc(OCc3ccc(OC(F)(F)F)cc3)cc2)no1` [Compound G5]: the Kd was 0.1 to 1 µM.

Compound `CC(C)(C)c1cc(NC(=O)Nc2ccc(NC(=O)c3ncc[nH]3)cc2)no1` [Compound N13] had a Kd below 0.1 µM.

On to `COc1cc(C(=O)Nc2ccc(NC(=O)Nc3cc(C(C)(C)C)on3)cc2)nc2ccccc12` [Compound N137], for which the equilibrium dissociation constant (Kd) fell in the range of 0.1 to 1 µM.
